Data set [1] concerns the target T1, human recombinant V2 vasopressin receptors (Homo sapiens, UniProt P30518).
T1 construct: expressed in transfected cells; host or cells: CHO
Put plainly: in vitro binding test, displacement of [H3]-AVP from V2 vasopressin receptors. The settings on record: CHO membranes, 3.5 nM [H3]-AVP, 45 minutes at 25° C. Here is the method:
The affinity of the compounds of the invention for the V2 vasopressin receptors was measured in in vitro binding tests, as described in J. Pharmacol. Exp. Ther., (2002), 300: pp. 1122-1130.
Plasma membranes (about 20 μg/ml) obtained from CHO tissue or cell line expressing human recombinant V2 vasopressin receptors, are incubated for 45 minutes at 25° C. in 200 μL of TRIS-HCl buffer (50 mM; pH 8.2) containing 2 mM of MgCl2, 1 mM of EDTA, 0.1% of BSA, 1/500 protease inhibitor cocktail (Sigma #P2714) and 3.5 nM of [H3]-AVP. The reaction is stopped by filtration and washing on GF/B filters. Nonspecific binding is determined in the presence of 1 μM of AVP. The compounds of the invention, dissolved beforehand to a concentration of 10^−2 M in DMSO, are tested in a dilution series.
For each concentration the results are expressed as percentage inhibition of specific binding. An IC50 (concentration of product inhibiting 50% of specific binding) is determined for each of the products using the in-house software Biost@t-SPEED v1.3 which employs the 4-parameter logistic model of Ratkovsky and Reedy (1986). Adjustment is obtained by nonlinear regression using Marquardt's algorithm of the SAS v8.2 software running under UNIX.

Data set [2] concerns the target T2, human oxytocin receptors (Homo sapiens, UniProt P30559).
T2 sequence (P30559 1-389): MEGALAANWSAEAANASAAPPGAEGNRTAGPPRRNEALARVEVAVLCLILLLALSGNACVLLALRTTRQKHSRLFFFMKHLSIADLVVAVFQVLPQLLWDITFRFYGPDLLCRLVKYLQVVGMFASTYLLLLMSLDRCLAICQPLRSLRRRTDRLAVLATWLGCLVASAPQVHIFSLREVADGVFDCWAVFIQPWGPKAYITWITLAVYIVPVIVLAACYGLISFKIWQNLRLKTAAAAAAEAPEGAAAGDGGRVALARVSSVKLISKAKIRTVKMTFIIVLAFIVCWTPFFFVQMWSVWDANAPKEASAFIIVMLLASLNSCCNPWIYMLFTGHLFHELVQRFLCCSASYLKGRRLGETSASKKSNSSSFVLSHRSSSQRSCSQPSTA
Put plainly: in vitro binding test, displacement of a radioiodated oxytocin analogue from oxytocin receptors. The settings on record: for IC50: membrane preparation of human oxytocin receptors; for IC50 OXT/IC50 V2: selectivity ratio versus V2. Here is the method: (§1) The affinity of the compounds of the invention for the Via and V1b vasopressin receptors and the affinity of the compounds of the invention for the oxytocin (OXT) receptors were also tested.
The affinity of the compounds according to the invention for the OXT receptors was determined in an in vitro binding test using the method described by J. Elands et al. in Eur. J. Pharmacol. 1987, 147, 197-207. This method comprises in vitro investigation of the displacement of a radioiodated analogue of oxytocin from the oxytocin receptors in a membrane preparation of human oxytocin receptors.

Data set [3] concerns the target T3, V1b receptors (Homo sapiens, UniProt P47901).
T3 sequence (P47901 1-424): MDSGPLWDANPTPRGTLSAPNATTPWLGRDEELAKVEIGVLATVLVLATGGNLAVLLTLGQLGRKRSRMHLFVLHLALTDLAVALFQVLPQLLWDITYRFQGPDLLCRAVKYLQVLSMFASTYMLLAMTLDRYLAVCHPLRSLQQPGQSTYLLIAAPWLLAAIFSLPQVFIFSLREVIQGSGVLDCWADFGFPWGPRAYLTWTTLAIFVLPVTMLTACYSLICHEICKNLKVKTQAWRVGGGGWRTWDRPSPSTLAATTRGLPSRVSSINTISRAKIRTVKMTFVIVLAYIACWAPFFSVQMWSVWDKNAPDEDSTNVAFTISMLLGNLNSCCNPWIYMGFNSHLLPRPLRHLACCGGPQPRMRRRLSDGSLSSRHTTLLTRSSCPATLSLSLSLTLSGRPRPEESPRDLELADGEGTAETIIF
The data set is described as follows: affinity for V1b receptors (method of Sugimoto et al.). The format is binding. The settings on record: for IC50 V1b/IC50 V2: selectivity ratio versus V2. Here is the method: as §1
(§2) The affinity of the compounds according to the invention for human Via receptors was determined according to the method described by M. Thibonnier et al. in J. Biol. Chem. 1994, 269, 3304-3310. The affinity of the compounds according to the invention for the V1b receptors was determined according to the method described by T. Sugimoto et al. in J. Biol. Chem. 1994, 269, 27088-27092.

Data set [4] has as its target V1a receptors (Homo sapiens, UniProt P37288). The data set is described as follows: affinity for V1a receptors (method of Thibonnier et al.). Type of data set: binding. The following applies: for IC50 V1a/IC50 V2: selectivity ratio versus V2. Here is the method: as §1, §2

Results on eight compounds are retold here after US20100069384A1, “5-ALKYLOXY-INDOLIN-2-ONE DERIVATIVES, PREPARATION THEREOF AND APPLICATION THEREOF IN THERAPY” (SANOFI-AVENTIS, priority 2006, published 2010).

What is called IC50 is the midpoint of a concentration-inhibition curve. The melting point is the temperature, or range, at which the solid turns liquid.

Chain of V1a receptors (P37288 whole entry): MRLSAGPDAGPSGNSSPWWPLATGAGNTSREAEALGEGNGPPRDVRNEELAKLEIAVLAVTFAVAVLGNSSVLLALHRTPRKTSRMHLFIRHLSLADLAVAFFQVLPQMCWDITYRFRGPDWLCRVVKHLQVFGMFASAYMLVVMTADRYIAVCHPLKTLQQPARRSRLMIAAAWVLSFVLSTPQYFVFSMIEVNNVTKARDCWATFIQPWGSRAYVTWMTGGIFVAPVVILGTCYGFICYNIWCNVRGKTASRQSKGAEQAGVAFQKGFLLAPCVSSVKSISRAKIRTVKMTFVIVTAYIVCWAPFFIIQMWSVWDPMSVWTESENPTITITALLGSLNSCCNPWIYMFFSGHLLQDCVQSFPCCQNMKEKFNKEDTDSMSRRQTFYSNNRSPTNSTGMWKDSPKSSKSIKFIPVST
T1 sequence (P30518 whole entry): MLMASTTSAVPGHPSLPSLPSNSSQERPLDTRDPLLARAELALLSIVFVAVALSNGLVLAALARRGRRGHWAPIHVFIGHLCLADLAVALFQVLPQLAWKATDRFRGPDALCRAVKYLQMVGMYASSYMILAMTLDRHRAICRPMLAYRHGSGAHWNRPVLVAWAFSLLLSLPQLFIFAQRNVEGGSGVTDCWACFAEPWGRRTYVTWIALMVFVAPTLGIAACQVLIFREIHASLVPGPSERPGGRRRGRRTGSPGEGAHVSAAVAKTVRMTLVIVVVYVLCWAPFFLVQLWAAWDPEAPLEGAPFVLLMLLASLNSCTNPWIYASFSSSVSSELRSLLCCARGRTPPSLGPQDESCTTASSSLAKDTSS

`CCOc1ccc2c(c1)C(C)(c1ccccc1Cl)C(=O)N2S(=O)(=O)c1ccc(C(=O)NC(C)(C)C)cc1` (single isomer, unassigned) [Example 12, N-tert-butyl-4-[3-(2-chlorophenyl)-5-ethoxy-3-methyl-2-oxo-2,3-dihydroindole-1-sulphonyl]benzamide] had a melting point of 153 °C. In data set [1], the half-inhibitory concentration (IC50) is 1.9 nM. Besides, in data set [2], the IC50 came out at 140 nM and the “IC50 OXT/IC50 V2” value is 74. Also, in data set [3], the concentration for half-maximal inhibition (IC50) is above 1000 nM and the “IC50 V1b/IC50 V2” value is given as above 100. In data set [4], the half-inhibitory concentration (IC50) worked out at 450 nM and the “IC50 V1a/IC50 V2” value was above 100.

The compound `CCOc1ccc2c(c1)C(C)(c1cc(C(=O)N[C@@H]3CCNC3)ccc1Cl)C(=O)N2S(=O)(=O)c1ccc(C(=O)NC(C)(C)C)cc1OC` (single isomer, unassigned) [Example 43] gave a melting point of 216 °C. The 50% inhibitory concentration (IC50) in data set [1] amounted to 1.3 nM. For the same compound, in data set [2], the half-inhibitory concentration (IC50) was 700 nM and the “IC50 OXT/IC50 V2” value is reported as above 100. In data set [3], the 50% inhibitory concentration (IC50) is above 1000 nM and the “IC50 V1b/IC50 V2” value is recorded as above 100. Further, in data set [4], it took 730 nM to reach half-maximal inhibition (IC50) and the “IC50 V1a/IC50 V2” value is above 100.

Compound `CCOc1ccc2c(c1)C(C)(c1ccccc1)C(=O)N2S(=O)(=O)c1ccc(C(=O)NC(C)(C)C)cc1OC` (single isomer, unassigned) [Example 99, N-tert-butyl-3-methoxy-4-[3-methyl-3-phenyl-5-ethoxy-2-oxo-2,3-dihydroindole-1-sulphonyl]benzamide] came in with a melting point of 148 °C. Moreover, the half-maximal inhibitory concentration (IC50) in data set [1] was determined as 1 nM. In addition, in data set [2], the IC50 was 700 nM and the “IC50 OXT/IC50 V2” value was above 100. In addition, in data set [3], the IC50 is above 1000 nM and the “IC50 V1b/IC50 V2” value was above 100. Besides, in data set [4], it took 260 nM to reach half-maximal inhibition (IC50) and the “IC50 V1a/IC50 V2” value is above 100.

Compound `CCNC(=O)c1ccc(Cl)c(C2(C)C(=O)N(S(=O)(=O)c3ccc(C(=O)NC(C)(C)C)cc3OC)c3ccc(OCC)cc32)c1` (stereo not shown) [Example 21, 4-chloro-3-[1-(4-tert-butylcarbamoyl-2-methoxybenzenesulphonyl)-5-ethoxy-3-methyl-2-oxo-2,3-dihydro-1H-indol-3-yl]-N-ethylbenzamide] showed a melting point of 176 °C. For the same compound, the IC50 in data set [1] was determined as 3 nM. In data set [2], the IC50 was above 1000 nM and the “IC50 OXT/IC50 V2” value was above 100. Besides, in data set [3], the concentration for half-maximal inhibition (IC50) is above 1000 nM and the “IC50 V1b/IC50 V2” value is given as above 100. Further, in data set [4], the half-maximal inhibitory concentration (IC50) was 340 nM and the “IC50 V1a/IC50 V2” value is reported as above 100.

`CCOc1ccc2c(c1)C(C)(c1cc(C(=O)NCCN3CCOCC3)ccc1Cl)C(=O)N2S(=O)(=O)c1ccc(C(=O)NC(C)(C)C)cc1OC` (stereo not shown) [Example 36, 4-chloro-3-[1-(4-tert-butylcarbamoyl-2-methoxybenzenesulphonyl)-5-ethoxy-3-methyl-2-oxo-2,3-dihydro-1H-indol-3-yl]-N-(2-morpholin-4-ylethyl)benzamide]: the melting point was determined as 124 °C. Also, the 50% inhibitory concentration (IC50) in data set [1] came to 5.2 nM. In addition, in data set [2], the IC50 came out at 350 nM and the “IC50 OXT/IC50 V2” value turned out to be 67. For the same compound, in data set [3], the half-inhibitory concentration (IC50) was above 1000 nM and the “IC50 V1b/IC50 V2” value is recorded as above 100. In data set [4], the half-inhibitory concentration (IC50) was above 1000 nM and the “IC50 V1a/IC50 V2” value is on record as above 100.

Compound `CCOc1ccc2c(c1)C(C)(c1cc(NC(=O)C3CCN(C)CC3)ccc1Cl)C(=O)N2S(=O)(=O)c1ccc(C(=O)NC(C)(C)C)cc1OC` (stereo not shown) [Example 62, 1-methylpiperidine-4-carboxylic acid {3-[1-(4-tert-butylcarbamoyl-2-methoxy-benzenesulphonyl)-5-ethoxy-3-methyl-2-oxo-2,3-dihydro-1H-indol-3-yl]-4-chlorophenyl}-amide] had a melting point of 180 °C. In addition, the IC50 in data set [1] amounted to 2.5 nM. Further, in data set [2], the IC50 is above 1000 nM and the “IC50 OXT/IC50 V2” value is recorded as above 100. For the same compound, in data set [3], the IC50 was above 1000 nM and the “IC50 V1b/IC50 V2” value is above 100. Besides, in data set [4], the 50% inhibitory concentration (IC50) stood at 630 nM and the “IC50 V1a/IC50 V2” value was above 100.

Regarding `CCOc1ccc2c(c1)C(C)(c1ccccc1Cl)C(=O)N2S(=O)(=O)c1ccc(C(=O)NC(C)(C)CO)cc1` (stereo not shown) [Example 72, 4-[3-(2-chlorophenyl)-5-ethoxy-3-methyl-2-oxo-2,3-dihydroindole-1-sulphonyl]-N-(2-hydroxy-1,1-dimethylethyl)benzamide], the melting point worked out at 152 °C. Also, the concentration for half-maximal inhibition (IC50) in data set [1] worked out at 1.3 nM. Also, in data set [2], the IC50 came out at 390 nM and the “IC50 OXT/IC50 V2” value is on record as above 100. Further, in data set [3], half-maximal inhibition (IC50) required 940 nM and the “IC50 V1b/IC50 V2” value is recorded as above 100. Besides, in data set [4], the concentration for half-maximal inhibition (IC50) was above 1000 nM and the “IC50 V1a/IC50 V2” value is reported as above 100.

`COc1cc(C(=O)NC(C)(C)C)ccc1S(=O)(=O)N1C(=O)C(C)(c2ccccc2Cl)c2cc(O)ccc21` (stereo not shown) [Example 144] yielded a melting point of 166 °C. For the same compound, the 50% inhibitory concentration (IC50) in data set [1] was 2.6 nM. Also, in data set [2], the half-maximal inhibitory concentration (IC50) turned out to be 130 nM and the “IC50 OXT/IC50 V2” value stood at 50. In addition, in data set [3], the IC50 was above 1000 nM and the “IC50 V1b/IC50 V2” value is on record as above 100. For the same compound, in data set [4], the midpoint of inhibition, the IC50, lay at 310 nM and the “IC50 V1a/IC50 V2” value is reported as above 100.
